# Measured values: US20050165082A1, “Methods of treating vasomotor symptoms” (Wyeth, priority 2003, published 2005)
# Entries after “also recorded” stand apart in the source; their conditions may differ.
# How the values were obtained:
# [1] = test system: naloxone-induced flush in morphine-dependent ovariectomized rats; test: Morphine-dependent rat model: naloxone-induced flush, tail skin temperature (TST); assay type: in vivo
# Procedure: (§1) Dosing: All doses were prepared based on mg/kg. All compounds were administered intraperitoneally and dissolved and used at the following dosages: SSR149415 (V1b receptor antagonist, 3.0-30 mg/kg was dissolved in 5% DMSO in 5% Cremophor EL). SSR49059 (V1a receptor antagonist, 30 mg/kg was dissolved 10% DMSO/sterile H2O) and VPA-985 (V2 receptor antagonist, 30 mg/kg was dissolved 10% DMSO/sterile H2O). Naloxone (1.0 mg/kg was dissolved in sterile H2O) was injected subcutaneously.
# Animals: Ovariectomized Sprague-Dawley rats (180-220 g) were obtained from a commercial vendor (Taconic, Germantown, N.Y.) and individually housed under 12 hours light/dark cycle in a room maintained at 25° C. Animals were provided with standard rat chow and water ad libitum.
# Morphine-dependent model: Ovariectomized rats were injected once daily for 8-9 days with vehicle to minimize stress responses and then administered compound(s) on test day (10 rats/group). On day 4 of vehicle dosing, morphine dependence was induced by sc implantation of two slow-release morphine pellets (75 mg/pellet) in the dorsal scapular region. This model is based upon an established morphine-dependent naloxone-induced flush paradigm that is reversible by estrogen treatment (Katovich et al., Proceedings of the Society for Experimental Biology & Medicine, 1990. 193(2): p. 129-35). Four to six days after implantation, morphine withdrawal was induced with an opioid antagonist (naloxone) that causes a transient increase in TST. In a typical experiment, rats were administered their final dose of test compound 40 minutes prior to naloxone injection. Rats were mildly sedated with ketamine and a thermistor connected to a MacLab data acquisition system (CB Sciences, Dover, N.H.) was taped to the base of the tail. Tail skin temperature was then monitored continuously for 10 minutes to establish a baseline temperature. Naloxone was subsequently administered and TST was measured for an additional […] (total recording time 95 min).
# Statistical analysis: To analyze changes in TST induced by naloxone in morphine-dependent rats, all data was analyzed using a two factors repeated measure. The factors were “treatment” and “time” (repeated). The model was fit to test whether there were significant differences in the responses between treatment groups. The data was analyzed at 5 minute intervals from 20 minutes (−20) prior to the naloxone administration (referred to as time 0) to 60 minutes after the treatment. Multiple comparisons (LSD p-values) among the treatment groups at each time point were used for the analysis, however, the changes in TST is greatest at 15 minutes post naloxone administration and this time point provides the best indicator of flush abatement. When appropriate estimation of the ED50 value was calculated. The ED50 value was determined using a log scale and the line was fit between the maximal (15 minutes post naloxone ΔTST) and minimal response (average baseline temperature prior to naloxone). The ED50 value is reported as the dose of test compound that abates 50% of the naloxone-induced flush.
# Method used as described in the general method section under morphine-dependent rat model with the following exceptions: in the morphine-dependent model rats were injected intraperitoneally with vehicle (5% DMSO in 5% Cremophor EL) or SSR149415 (V1b receptor antagonist) which may be prepared as described in WO 01/55134, dissolved in 5% DMSO in 5% Cremophor EL and administered at 3.0 and 30 mg/kg 40 minutes prior to naloxone injection (FIGS. 1A and 1B). […] At the highest dose (30 mg/kg) tested antagonism of the V1b receptor produced a 60% abatement of the naloxone-induced flush. […]
# [2] = test system: tail skin temperature in ovariectomized rats; test: OVX-induced thermoregulatory dysfunction telemetry model (TST); assay type: in vivo, rat; conditions: 30 mg/kg intraperitoneal, 30 minutes prior to onset of dark cycle
# Procedure: as §1
# Animals: Ovariectomized Sprague-Dawley rats (180-220 g) were obtained from a commercial vendor (Taconic, Germantown, N.Y.) and individually housed under 12 hours light/dark cycle in a room maintained at 25° C. […]
# OVX-induced thermoregulatory dysfunction telemetry model: To determine the effect that test compounds had on thermoregulation, TST was monitored in ovariectomized rats by telemetry (6-7 rats/group). […] After a 7 day recovery period rats were administered a vehicle injection and TST monitored continuously for 12 hours (Day 1). Twenty-four hours later rats were administered either vehicle or test compound and TST monitored continuously for 12 hours (Day 2). […]
# To analyze changes in TST induced by test compounds in the thermoregulatory dysfunction model a 2-day paradigm was used. […] On Day 2, test compound is administered and TST readings are recorded every 30 minutes as described above. […]
# [3] = 30 mg/kg intraperitoneal, 15 minutes post-naloxone
SMILES,"effect on naloxone-induced flush at maximal flush (ΔTST) [1, 3]","effect on naloxone-induced flush at maximal flush (ΔTST) ([1]; 3.0 mg/kg intraperitoneal, 15 minutes post-naloxone)","abatement of the naloxone-induced flush ([1]; 30 mg/kg intraperitoneal (highest dose), 40 minutes prior to naloxone)","changes in TST over time, naloxone-induced flush ([1]; 3.0 and 30 mg/kg intraperitoneal, 40 minutes prior to naloxone)","ED50 ([1]; Rattus norvegicus, ip, intraperitoneal, 40 minutes prior to naloxone, maximal flush, 15 minutes post-naloxone, read-out: ED50 value, abatement of naloxone-induced flush)","change in TST (ΔTST) relative to vehicle, active phase [2]"
COc1ccc(S(=O)(=O)N2c3ccc(Cl)cc3[C@](O)(c3ccccc3Cl)[C@@H]2C(=O)N2CCC[C@H]2C(N)=O)cc1OC [SR49059],lack efficacy in attenuating the naloxone-induced flush; also recorded: failed to abate the naloxone-induced flush,,,,,
"COc1ccc(S(=O)(=O)N2C(=O)C(c3ccccc3OC)(N3C[C@H](O)C[C@H]3C(=O)N(C)C)c3cc(Cl)ccc32)c(OC)c1 (stereo partly drawn) [SSR149415, (2S,4R)-1-[5-Chloro-1-[(2,4-dimethoxyphenyl)-sulfonyl]-3-(2-methoxy-phenyl)-2-oxo-2,3-dihydro-1H-indol-3-yl]-4-hydroxy-N,N-dimethyl-2-pyrrolidine carboxamide]",significantly and dose-dependently abated the naloxone-induced flush,no effect,60%,dose-dependently abates the naloxone-induced flush,12.1 mg/kg,significant decrease in ΔTST; also recorded: able to restore normal thermoregulation; also recorded: significantly and transiently decreased TST
Cc1ccc(F)cc1C(=O)Nc1ccc(C(=O)N2Cc3cccn3Cc3ccccc32)c(Cl)c1 [VPA-985],lack efficacy in attenuating the naloxone-induced flush; also recorded: failed to abate the naloxone-induced flush,,,,,
